Reference: ChEMBL document CHEMBL4477224, “Antidiabetic effect, antioxidant activity, and toxicity of 3',4'-Di-O-acetyl-cis-khellactone in Streptozotocin-induced diabetic rats” (Bioorg Med Chem Lett, 2016)
Activity calls are given as the source filed them. The calls are words filed in the database; no cut-off is given here.

Experiments:
[1] = Mutagenicity in Salmonella typhimurium TA98 assessed as mutagenic index at 0.19 uM/plate after 48 hrs in absence of S9 fraction by Ames test relative to control; assay type: toxicity; conditions: salmonella enterica subsp. enterica serovar typhimurium, s9, 48 h
[2] = Mutagenicity in Salmonella typhimurium TA98 assessed as mutagenic index at 0.005 uM/plate after 48 hrs in presence of S9 fraction by Ames test relative to control; assay type: toxicity, subcellular; conditions: salmonella enterica subsp. enterica serovar typhimurium, s9, 48 h
[3] = Mutagenicity in Salmonella typhimurium TA100 assessed as mutagenic index at 0.005 uM/plate after 48 hrs in presence of S9 fraction by Ames test relative to control; assay type: toxicity, subcellular; conditions: salmonella enterica subsp. enterica serovar typhimurium, s9, 48 h
[4] = Mutagenicity in Salmonella typhimurium TA102 assessed as mutagenic index at 0.005 uM/plate after 48 hrs in presence of S9 fraction by Ames test relative to control; assay type: toxicity, subcellular; conditions: salmonella enterica subsp. enterica serovar typhimurium, s9, 48 h
[5] = Toxicity in DBA/2J mouse assessed as mortality; conditions: in vivo
Rattus norvegicus [6] = assay: Antidiabetic activity in STZ-induced diabetic Wistar rat assessed as body weight at 2.5 mg/kg, po administered on day 7 post STZ challenge measured immediately post dosage (reference value: 330.7 +/- 9.2 g); assay type: functional
Rattus norvegicus [7] = assay: Antidiabetic activity in STZ-induced diabetic Wistar rat assessed as body weight at 2.5 mg/kg, po administered for 15 days post STZ challenge measured on day 21 (reference value: 330.7 +/- 9.2 g); assay type: functional
Rattus norvegicus [8] = assay: Antidiabetic activity in STZ-induced diabetic Wistar rat assessed as change in fasting blood glucose level at 2.5 mg/kg, po administered on day 7 post STZ challenge measured immediately post dosage by glucometry (reference value: 63.75 +/- 7.3 mg/dl); assay type: functional
Rattus norvegicus [9] = assay: Antidiabetic activity in STZ-induced diabetic Wistar rat assessed as change in fasting blood glucose level at 2.5 mg/kg, po administered for 7 days post STZ challenge measured on day 14 by glucometry (reference value: 63.75 +/- 7.3 mg/dl); assay type: functional
Rattus norvegicus [10] = assay: Antidiabetic activity in STZ-induced diabetic Wistar rat assessed as decrease in blood glucose level at 2.5 mg/kg, po administered for 15 days post STZ challenge measured on day 21 by glucometry relative to control; assay type: functional; parameters: scale not given: the % may be the effect or the level left
Rattus norvegicus [11] = assay: Antidiabetic activity in STZ-induced diabetic Wistar rat blood assessed as creatinine level at 2.5 mg/kg, po administered for 15 days (reference value: 0.56 +/- 0.03 mg/dl); assay type: functional
Rattus norvegicus [12] = assay: Antidiabetic activity in STZ-induced diabetic Wistar rat blood assessed as urea level at 2.5 mg/kg, po administered for 15 days (reference value: 62.98 +/- 6.21 mg/dl); assay type: functional
Rattus norvegicus [13] = assay: Antidiabetic activity in STZ-induced diabetic Wistar rat blood assessed as cholesterol level at 2.5 mg/kg, po administered for 15 days (reference value: 80.09 +/- 9.35 mg/dl); assay type: functional
Rattus norvegicus [14] = assay: Antidiabetic activity in STZ-induced diabetic Wistar rat blood assessed as HDL level at 2.5 mg/kg, po administered for 15 days (reference value: 36.31 +/- 0.51 mg/dl); assay type: functional
Rattus norvegicus [15] = assay: Antidiabetic activity in STZ-induced diabetic Wistar rat blood assessed as LDL level at 2.5 mg/kg, po administered for 15 days (reference value: 23.11 +/- 9.82 mg/dl); assay type: functional
Rattus norvegicus [16] = assay: Antioxidant activity in STZ-induced diabetic Wistar rat liver assessed as catalase level measured as H2O2 consumption per mg of protein at 2.5 mg/kg, po administered for 15 days (reference value: 68.9 +/- 11.1 microM/min); assay type: functional
Rattus norvegicus [17] = assay: Antioxidant activity in STZ-induced diabetic Wistar rat liver assessed as glutathione peroxidase level measured as NADPH consumption per mg of protein at 2.5 mg/kg, po administered for 15 days (reference value: 10 +/- 0.6 microM/min); assay type: functional
Rattus norvegicus [18] = assay: Antioxidant activity in STZ-induced diabetic Wistar rat liver assessed as SOD level measured per mg of protein at 2.5 mg/kg, po administered for 15 days by NBT reduction test (reference value: 0.22 +/- 0.06 microM/min); assay type: functional
Rattus norvegicus [19] = assay: Antidiabetic activity in STZ-induced diabetic Wistar rat liver assessed as effect on central vein architecture at 2.5 mg/kg, po administered for 15 days by hematoxylin/eosin staining based microscopy; assay type: functional, organism-based
Rattus norvegicus [20] = assay: Antidiabetic activity in STZ-induced diabetic Wistar rat assessed as effect on hepatocytes surrounding central vein architecture at 2.5 mg/kg, po administered for 15 days by hematoxylin/eosin staining based microscopy; assay type: functional, organism-based
Rattus norvegicus [21] = assay: Antidiabetic activity in STZ-induced diabetic Wistar rat assessed as increase in body weight at 2.5 mg/kg, po administered for 15 days post STZ challenge measured on day 21; assay type: functional
Rattus norvegicus [22] = assay: Antidiabetic activity in STZ-induced diabetic Wistar rat assessed as change in fasting blood glucose level at 2.5 mg/kg, po administered for 15 days post STZ challenge measured on day 21 by glucometry (reference value: 63.75 +/- 7.3 mg/dl); assay type: functional
Rattus norvegicus [23] = assay: Antidiabetic activity in STZ-induced diabetic Wistar rat assessed as increase in fasting blood glucose level at 2.5 mg/kg, po administered for 15 days post STZ challenge measured on day 21 by glucometry; assay type: functional
Rattus norvegicus [24] = assay: Antidiabetic activity in STZ-induced diabetic albino Wistar rat assessed as increase in body weight at 100 mg/kg, po administered for 45 days relative to control; assay type: functional

For `CC1=NN(c2ccc([N+](=O)[O-])cc2)C(=O)C1[N+](=O)[O-]` (centres undefined), the Ratio [1] was 27.3.

Compound `Nc1ccc2cc3ccccc3cc2c1` [2-AMINOANTHRACENE] has a Ratio [2] of 54.1, a Ratio [3] of 19.1 and a Ratio [4] of 3.5.

In the case of `O=c1ccc2ccccc2o1` [COUMARIN], the LD50 [5] is reported as > 700 mg/kg.

In the case of `COc1ccc(Cl)cc1C(=O)NCCc1ccc(S(=O)(=O)NC(=O)NC2CCCCC2)cc1` [GLYBURIDE], the Activity (Rattus norvegicus [6]) is reported as 341.4 g, the Activity (Rattus norvegicus [7]) is reported as 385.5 g and the Activity (Rattus norvegicus [8]) is reported as 211.7 mg/dL. It also gave an Activity (Rattus norvegicus [9]) of 282.8 mg/dL, an Activity (Rattus norvegicus [10]) of 56.6% and an Activity (Rattus norvegicus [11]) of 0.62 mg/dL. For the same compound, the Activity (Rattus norvegicus [12]) was 58.43 mg/dL, the Activity (Rattus norvegicus [13]) was 70.64 mg/dL and the Activity (Rattus norvegicus [14]) was 26.6 mg/dL. It also gave an Activity (Rattus norvegicus [15]) of 21.71 mg/dL, an Activity (Rattus norvegicus [16]) of 93.2 µM/min and an Activity (Rattus norvegicus [17]) of 48.75 µM/min. The Activity (Rattus norvegicus [18]) was 0.55 U/min, the Activity (Rattus norvegicus [19]) was “Active” and the Activity (Rattus norvegicus [20]) was “Active”. For the same compound, the Activity (Rattus norvegicus [21]) was 54.8 g, the Activity (Rattus norvegicus [22]) was 142 mg/dL and the Activity (Rattus norvegicus [23]) was 78.25 mg/dL.

`C[C@@H]1O[C@@H](OC[C@H]2O[C@@H](Oc3c(-c4ccc(O)c(O)c4)oc4cc(O)cc(O)c4c3=O)[C@H](O)[C@@H](O)[C@@H]2O)[C@H](O)[C@H](O)[C@H]1O` [RUTIN] showed an Activity (Rattus norvegicus [24]) of 12.1%.
